Reference: paper PMC7966987, “Insights into the catalytic properties of the mitochondrial rhomboid protease PARL” (The Journal of Biological Chemistry, 2021)
Where two headings read alike, the source gives them in different places.

T1: PARLΔ77 (Homo sapiens, UniProt Q9H300)
T1 construct: GFP-hexahistidine (behind a TEV cleavage site) (C, cleaved yes); made in house; host or cells: Pichia pastoris
T1 sequence (Q9H300 78-379): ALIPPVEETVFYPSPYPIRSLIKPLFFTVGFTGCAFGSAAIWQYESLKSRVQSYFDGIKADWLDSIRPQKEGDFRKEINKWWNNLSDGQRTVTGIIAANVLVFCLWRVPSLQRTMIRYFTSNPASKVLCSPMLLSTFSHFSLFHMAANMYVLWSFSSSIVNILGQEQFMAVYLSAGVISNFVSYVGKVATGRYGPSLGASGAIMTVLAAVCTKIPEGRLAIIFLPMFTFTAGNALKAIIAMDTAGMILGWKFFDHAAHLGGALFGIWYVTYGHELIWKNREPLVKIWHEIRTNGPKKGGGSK

B1: GlpG: E. coli rhomboid protease (protein, UniProt P09391 1-276, looked up)
Rhomboid protease GlpG: MLMITSFANPRVAQAFVDYMATQGVILTIQQHNQSDVWLADESQAERVRAELARFLENPADPRYLAASWQAGHTGSGLHYRRYPFFAALRERAGPVTWVMMIACVVVFIAMQILGDQEVMLWLAWPFDPTLKFEFWRYFTHALMHFSLMHILFNLLWWWYLGGAVEKRLGSGKLIVITLISALLSGYVQQKFSGPWFGGLSGVVYALMGYVWLRGERDPQSGIYLQRGLIIFALIWIVAGWFDLFGMSMANGAHIAGLAVGLAMAFVDSLNARKRK
B2: HiGlpG: bacterial rhomboid protease from Haemophilus influenzae (protein, UniProt P44783 1-192, looked up)
Rhomboid protease GlpG: MKNFLAQQGKITLILTALCVLIYLAQQLGFEDDIMYLMHYPAYEEQDSEVWRYISHTLVHLSNLHILFNLSWFFIFGGMIERTFGSVKLLMLYVVASAITGYVQNYVSGPAFFGLSGVVYAVLGYVFIRDKLNHHLFDLPEGFFTMLLVGIALGFISPLFGVEMGNAAHISGLIVGLIWGFIDSKLRKNSLE
B3: AarA: bacterial rhomboid protease from P. stuartii (protein, UniProt P46116 1-281, looked up)
Rhomboid protease AarA: MAEQQNPFSIKSKARFSLGAIALTLTLVLLNIAVYFYQIVFASPLDSRESNLILFGANIYQLSLTGDWWRYPISMMLHSNGTHLAFNCLALFVIGIGCERAYGKFKLLAIYIISGIGAALFSAYWQYYEISNSDLWTDSTVYITIGVGASGAIMGIAAASVIYLIKVVINKPNPHPVIQRRQKYQLYNLIAMIALTLINGLQSGVDNAAHIGGAIIGALISIAYILVPHKLRVANLCITVIAASLLTMMIYLYSFSTNKHLLEEREFIYQEVYTELADANQ

Tests used:
PARLΔ77 [1] = target: T1, PARLΔ77; test: Multiplex substrate profiling by mass spectrometry (MSP-MS), PARLΔ77 in DDM; format: biochemical; conditions: PARLΔ77 1 μM, 0.1% DDM, peptides 0.5 μM each, LC-MS/MS, quadruplicate; for FC_60min (fold change of cleavage product, Annotated_Sequence): pH 7.0, 60 vs 0 min; for FC_240min (fold change of cleavage product, Annotated_Sequence): pH 7.0, 240 vs 0 min
Method: (§1) Multiplex substrate profiling by mass spectrometry (MSP-MS) assays was performed in quadruplicate. In total, 1 μM of PARLΔ77 was incubated with an equimolar mixture of 228 synthetic tetradecapeptides at a final concentration of 0.5 μM for each peptide in 50 mM Tris-HCl pH 7.0, 150 mM NaCl, 10% glycerol, with or without 0.1% DDM. The sequence of each peptide is listed in Supplementary Data File. These peptides have been validated as substrates for a wide variety of proteolytic enzymes (PMID 23023596, 24073241, 25944934) including bacterial rhomboid proteases (30705125). For each assay, 20 μl of the reaction mixture was removed after 0, 60, and 240 min of incubation. Enzyme activity was quenched by adding GuHCl (MP Biomedicals) to a final concentration of 6.4 M, and samples were immediately stored at –80 °C. All samples were desalted using C18 spin columns and dried by vacuum centrifugation.
(§2) Approximately 2 μg of peptides was injected into a Q-Exactive Mass Spectrometer (Thermo) equipped with an Ultimate 3000 HPLC. Peptides were separated by reverse-phase chromatography on a C18 column (1.7 μm bead size, 75 μm × 25 cm, 65 °C) at a flow rate of 300 nl/min using a 60-min linear gradient from 5% to 30% B, with solvent A: 0.1% formic acid in water and solvent B: 0.1% formic acid in acetonitrile. Survey scans were recorded over a 150–2000 m/z range (70,000 resolutions at 200 m/z, AGC target 3 × 10^6, 100 ms maximum). MS/MS was performed in data-dependent acquisition mode with HCD fragmentation (28 normalized collision energy) on the 12 most intense precursor ions (17,500 resolutions at 200 m/z, AGC target 1 × 10^5, 50 ms maximum, dynamic exclusion 20 s).
(§3) Data was processed using PEAKS 8.5 (Bioinformatics Solutions Inc). MS^2 data were searched against the 228 tetradecapeptide library sequences with decoy sequences in reverse order. A precursor tolerance of 20 ppm and 0.01 Da for MS^2 fragments was defined. No protease digestion and modification were specified. Data were filtered to 1% peptide-level false discovery rates with the target-decoy strategy. Peptides were quantified with label-free quantification and data are normalized by medians and filtered by 0.3 peptide quality. Missing and zero values are imputed with random normally distributed numbers in the range of the average of smallest 5% of the data ± SD. Cleaved sequences were defined as peptide products that increase by a fold change of >8 and q value <0.05 (by Student t test) between 0 min and 240 min. IceLogo software was used for visualization of amino-acid frequency surrounding the cleavage sites. Amino acids that were most frequently observed (above axis) and least frequently observed (below axis) from P4 to P4ʹ positions were illustrated. Norleucine (Nle) was represented as “n” in the reported profiles. Mass spectrometry data and searching results have been deposited in MassIVE with accession number, MSV000085295.

PARLΔ77 [2] = target: T1, PARLΔ77; test: Lipid effect on PARLΔ77 cleavage of FRET-PINK1(70-134); format: biochemical; conditions: vs no lipid, N = 4
Source text: Lipids are known to influence membrane protein function ([29]). In mitochondria, for example, increased CL amounts are observed during mitochondrial stress, which influences protein function at the molecular level ([30]). Therefore, we assessed the effect of the three primary lipids present in the IMM, namely CL, phosphatidylcholine (POPC), and phosphatidylethanolamine (POPE) on PARLΔ77 activity with the FRET-PINK^70–134 substrate (Fig. 1D) ([31]). The lipid-free conditions were used as a baseline and consisted of PARLΔ77 reconstituted in detergent (DDM) micelles, while all lipid conditions consisted of a mixed detergent-lipid micelle system. First we assess the effect of different classes of lipids. […] In order to precisely determine the optimal concentration of CL for PARL activity, the initial velocities of PARL-mediated cleavage of FRET-PINK1^70–134 were measured in the presence of increasing concentrations of CL. […] Therefore, CL was included in all subsequent protein preparations of detergent-solubilized PARL at the last purification step.
Figure S5. The dependence of PA R LΔ77activity on CL concentration. The initial velocities of PA R LΔ77weremeasuredin the presence of different molar ratios of CL using FRET-PINK170-134 substrate. One-way ANOVA with multiple comparisons was performed between the no-lipid condition and each molar ratio of CL:protein to determine if differences observed were significant. A total of five experimental replicates performed in duplicate were used for data analysis (N = 5). Individual data points (black dots) are indicated on the bar graphs, representing the mean ±SEM
(1 picture or pasted object on this page, not shown here)

PARLΔ77 [3] = target: T1, PARLΔ77; test: Multiplex substrate profiling by mass spectrometry (MSP-MS), PARLΔ77 in proteoliposomes; format: biochemical; conditions: PARLΔ77 1 μM in PL containing PC, PE and CL, peptides 0.5 μM each, pH 7.0, without DDM, LC-MS/MS, quadruplicate; for FC_60min (fold change of cleavage product, Annotated_Sequence): 60 vs 0 min; for FC_240min (fold change of cleavage product, Annotated_Sequence): 240 vs 0 min
Method: as §1, §2, §3

preferred substrates = conditions: cited from earlier work
Method: The bacterial rhomboid proteases from Haemophilus influenzae (HiGlpG) and P. stuartii (AarA) cleave at a rate of roughly two per minute for their preferred substrates in DDM, while the E. coli rhomboid protease GlpG cleaves slowly in DDM, much like PARL, at a rate of approximately six per hour and with a rate of 2.5 min^−1 in PLs ([26], [34], [35]).

[4] = lipid at molar ratio 50:1, mixed detergent (DDM)-lipid micelles

Molecule | FC_60min (fold change of cleavage product, Annotated_Sequence) (PARLΔ77 [1]; TDP160: product INDFLVR.T) | FC_240min (fold change of cleavage product, Annotated_Sequence) (PARLΔ77 [1]; TDP160: product INDFLVR.T) | FC_60min (fold change of cleavage product, Annotated_Sequence) (PARLΔ77 [3]) | FC_240min (fold change of cleavage product, Annotated_Sequence) (PARLΔ77 [3]) | other results
INDFLVRTWKMPGL [TDP160, synthetic tetradecapeptide of the 228-peptide library] | 264.961 | 895.528 | – | – | FC_60min (fold change of cleavage product, Annotated_Sequence) (PARLΔ77 [1]; product F.LVRTWKLPGL): 150.552; FC_240min (fold change of cleavage product, Annotated_Sequence) (PARLΔ77 [1]; product F.LVRTWKLPGL): 507.811
cardiolipin [CL] | – | – | – | – | effect on PARL activity (PARLΔ77 [2]; [4]): significant increase in PARL activity
QAVRPNGMYWHYLM [TDP216, synthetic tetradecapeptide of the 228-peptide library] | – | – | 43.2174 | 200.338 | –
NVDWTAPQLIEYLD [TDP138, synthetic tetradecapeptide of the 228-peptide library] | – | – | 42.87 | 40.3813 | –
AETSIKVFMPYYGH [TDP91, synthetic tetradecapeptide of the 228-peptide library] | – | – | 43.5042 | 295.878 | –
GQYPMFVKISTTHW [TDP96, synthetic tetradecapeptide of the 228-peptide library] | – | – | 35.4935 | 328.605 | –
phosphatidylethanolamine [POPE] | – | – | – | – | effect on PARL activity (PARLΔ77 [2]; [4]): did not significantly increase PARL activity; effect on PARL activity (PARLΔ77 [2]; lipid at molar ratio 100:1, mixed detergent (DDM)-lipid micelles): did not significantly increase PARL activity
MHSPWTMANFLRGP [TDP94, synthetic tetradecapeptide of the 228-peptide library] | 682.585 | 2284.43 | 254.488 | 1890.88 | –
GPKLTYDFWIQNLP [TDP89, synthetic tetradecapeptide of the 228-peptide library] | 270.23 | 1077.04 | – | – | –
AMTDRGWYLAIQAV [TDP15, synthetic tetradecapeptide of the 228-peptide library] | 247.32 | 689.515 | – | – | –
B1 | – | – | – | – | cleavage rate (preferred substrates; in DDM): approximately six; cleavage rate (preferred substrates; in PLs): 2.5 min⁻¹
B2 | – | – | – | – | cleavage rate (preferred substrates; preferred substrates, in DDM): roughly two
B3 | – | – | – | – | cleavage rate (preferred substrates; preferred substrates, in DDM): roughly two
